This passage reports outcome, EC50 and IC50 results from PubChem BioAssay AID179 (DTP/NCI, 2004).

The subject of this experiment is CEM cells HIV-1 protection, formazan growth assay. Put plainly: NCI AIDS Antiviral Assay. As to conditions: for IC50: measured here: growth of uninfected CEM cells. In short, it runs like this: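 Category rules: moderately active means at least 50% protection on retest, and confirmed active means 100% protection reproducibly. The underlying data came from a formazan growth assay in HIV-1-infected CEM cells.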

As a reminder, the EC50 is the concentration at which the effect is half-maximal. The IC50 is the concentration at which inhibition is half-maximal. A high value points to weaker potency in that assay.

The structures appear in SMILES notation. Activity calls are given as the source filed them.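 How the source made its calls: active means compounds giving half or more protection of infected cells from virus-caused growth loss, again on retest; inactive means the rest.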

Consider `O=C1CC([C@H](NC(=O)OCc2ccccc2)C(=O)O)ON1` (stereo not given in full), for which the result was inactive. As to `COc1cc2c(cc1OC)C1c3ccccc3CCCN1CC2` (stereo not given), the EC50 was over 200 µM and the IC50 stood at 123 µM. In the case of `CN(C)C=Nc1ccn(CCO)c(=O)n1`, the EC50 was over 1200 µM and the half-inhibitory concentration (IC50) is over 1200 µM.

As to `COc1cc2c(cc1OC)C(=O)/C(=C/c1ccc(Cl)cc1)CC2`, the EC50 was over 200 µM and the concentration for half-maximal inhibition (IC50) is over 200 µM. Consider `CCOC(=O)/C(=C\c1cccs1)P(=O)(OCC)OCC`, for which the EC50 is over 794 µM and the concentration for half-maximal inhibition (IC50) came out at 41.7 µM. On to `CCOc1ccc(N=Cc2c3ccccc3nc3ccccc23)cc1`, for which the outcome was inactive. For the compound `N#C/C(=C/NC(=S)Nc1ccc(Cl)c(Cl)c1)C(N)=O`, the EC50 was over 200 µM and the IC50 came to 38 µM. As for `O=C(OC1Cc2c(O)cc(O)cc2OC1c1ccc(O)c(O)c1)c1cc(O)c(O)c(O)c1` (stereo not given), the EC50 is over 56.2 µM and the IC50 is 49 µM.

In the case of `CCCCCCC(C)c1ccc2c(c1)C(=O)c1nc3ccncc3c(=O)n1-2` (stereo not given), the EC50 was over 200 µM and the IC50 amounted to 0.955 µM. Take `O=C(CCCn1ccnc1[N+](=O)[O-])NCCn1ccnc1[N+](=O)[O-]`: the EC50 was over 200 µM and the IC50 is over 200 µM.

Regarding `CCOC(=O)C1(C#N)C(c2ccccc2)CC(O)(c2ccc(OC)cc2)C(C(=O)c2ccc(OC)cc2)C1c1ccccc1` (stereo not given), the EC50 was over 12.3 µM and the IC50 is over 12.3 µM. On to `CN1CN(C)N(C(=O)c2ccccc2)CN1C(=O)c1ccccc1`, for which the EC50 is over 200 µM and the IC50 was 97.7 µM.

In the case of `Clc1ccc(Cl)c(-c2nc3ccccc3[nH]2)c1`, the EC50 was over 97.7 µM and the IC50 was over 97.7 µM.

For the compound `NCc1c(C(N)=O)ncn1Cc1ccccc1`, the outcome was inactive.

`O/N=C\C(=Nc1ccc(Cc2ccc(N=C(/C=N\O)NO)cc2)cc1)NO`: the EC50 is over 355 µM and the IC50 is 39.8 µM. Turning to `Cc1cc(=O)c2c(O)cc(O)c(C3CCN(C)CC3O)c2o1` (stereo not given), the EC50 was over 1020 µM and the half-maximal inhibitory concentration (IC50) was 17 µM. Turning to `CC(=O)Oc1ccc(-c2oc3c([C@H]4C=C(C)CC(c5ccc(OC(C)=O)cc5OC(C)=O)[C@@H]4C(=O)c4ccc(OC(C)=O)c(CC=C(C)C)c4OC(C)=O)c(OC(C)=O)cc(O)c3c(=O)c2CC=C(C)C)c(OC(C)=O)c1` (stereo not given in full), the EC50 was over 11.7 µM and the IC50 stood at 7.41 µM.

As for `COc1ccc(-c2cn3c([nH]c(=O)c4cc(Br)ccc43)c2C#N)cc1`, the EC50 is over 200 µM and the IC50 was found to be 182 µM.

For the compound `O=C(O)C(O[N+](=O)[O-])c1ccccc1` (stereo not given), the outcome was inactive. For the compound `CC12CCC(=O)N1c1cccnc1N2` (stereo not given), the EC50 is over 1320 µM and the 50% inhibitory concentration (IC50) turned out to be 1120 µM. For the compound `N#Cc1ccc(Nc2nc3nc[nH]c3c(=O)[nH]2)cc1`, the EC50 was over 200 µM and the half-inhibitory concentration (IC50) was over 200 µM. Take `Cn1c(=O)c2nc3sc4c(n3c2n(C)c1=O)C(=O)c1ccccc1C4=O`: the EC50 is over 14.1 µM and the IC50 is over 14.1 µM. For `COc1ccc(-c2sc(/N=C/c3cc(Br)cc(Br)c3O)c(C#N)c2C)cc1OC`, the result was inactive.

Regarding `C/C(Cl)=N\OC(=O)Nc1ccc([N+](=O)[O-])cc1`, the EC50 was over 200 µM and the IC50 is 10.5 µM. In the case of `Cc1cccc(NC(=O)CC2C(=O)Nc3ccccc3S2(=O)=O)c1C` (stereo not given), the EC50 is over 5.62 µM and the concentration for half-maximal inhibition (IC50) is over 5.62 µM. Regarding `CC(=O)SC(C[N+](=O)[O-])c1ccc2c(c1)OCO2` (stereo not given), the EC50 is over 200 µM and the 50% inhibitory concentration (IC50) was determined as 3.98 µM. `Nc1nc2c(-c3ccc([N+](=O)[O-])cc3)nnn2c2cccc(Cl)c12`: the EC50 is over 3.98 µM and the half-inhibitory concentration (IC50) is over 3.98 µM.

Consider `COc1cc2c(cc1OC)C(=O)/C(=C/c1ccccc1)C2`, for which the EC50 was over 200 µM and the half-inhibitory concentration (IC50) is 151 µM. Take `CC(=O)O[C@H]1CCCC[C@H]1c1ccccc1`: the EC50 was over 309 µM and the 50% inhibitory concentration (IC50) is over 309 µM.

In the case of `C/C(=N\NC(C)(C)C)c1sc(-c2nc(C)c(/C(C)=N/NC(C)(C)C)s2)nc1C`, the EC50 is over 44.7 µM and the concentration for half-maximal inhibition (IC50) is over 44.7 µM. On to `COC(=O)c1ccc(NCC2=CC(=O)c3ccccc3C2=O)cc1`, for which the EC50 was over 200 µM and the concentration for half-maximal inhibition (IC50) worked out at 2.09 µM. On to `COc1ccc(-n2c(N)c(C#N)c(C#N)c2-c2ccco2)cc1`, for which the EC50 was over 200 µM and the 50% inhibitory concentration (IC50) was over 200 µM.

In the case of `Cc1cc(=O)[nH]c(NN2C(Cl)C(=O)C2c2ccc(O)cc2)n1` (stereo not given), the EC50 was over 42.7 µM and the IC50 worked out at 6.76 µM.

`C#Cc1c(C)c(/C=C/C(C)=C\C(=O)OC)n(C)c1C`: the EC50 was over 28.2 µM and the half-maximal inhibitory concentration (IC50) was over 28.2 µM. `Cc1cc(C)c(-c2noc(-c3ccccc3)c2C2=NCCN2)c(C)c1`: the outcome was inactive. Consider `CC1=N/C(=C\c2ccc([N+](=O)[O-])cc2)C(=O)O1`, for which the EC50 is over 155 µM and the concentration for half-maximal inhibition (IC50) was over 155 µM. On to `Cc1cc2c(c(=O)[nH]1)C(=O)NC2=O`, for which the EC50 is over 813 µM and the half-inhibitory concentration (IC50) worked out at 468 µM. The corresponding values for `COc1ccc(COCCOCc2nc(C#N)c(N)o2)cc1` are over 200 µM and 135 µM. With `O=C1CCCCC1CN(Cc1ccccc1)Cc1ccccc1` (stereo not given), the result was inactive. As for `O=C(O)c1ccc(NNc2cc(=O)[nH]c(=O)[nH]2)cc1`, the EC50 was over 200 µM and the IC50 stood at 107 µM. As to `COc1cc(C2C(C(=O)Nc3ccc(Cl)c(Cl)c3)=C(C)NC(C)=C2C(=O)Nc2ccc(Cl)c(Cl)c2)ccc1O`, the EC50 is over 22.4 µM and the 50% inhibitory concentration (IC50) is 12.6 µM. In the case of `CC(=O)O[C@H]1CC[C@@]2(C)C(CC[C@@H]3C2C(Br)C(=O)[C@]2(C)C4C(CC32)OC2(OCC(C)CC2Br)C4C)C1` (stereo not given in full), the outcome was inactive. As to `Cc1nn(-c2ccccc2)c(-c2ccccc2[N+](=O)[O-])c1CC#N`, the result was inactive. As for `c1ccc(C(NC2=NCCO2)c2ccccc2)cc1`, the outcome was inactive. Turning to `COP(=O)(OC)C1c2ccccc2-c2cccc(C(=O)O)c21` (stereo not given), the EC50 is over 200 µM and the IC50 was over 200 µM.

Take `COc1cc(/C=C/C2=C(C#N)C(=O)OC2(C)C)ccc1O`: the EC50 was over 126 µM and the 50% inhibitory concentration (IC50) is over 126 µM. With `COC1C(O)CC(OC2CC(OC3CC(O[C@@H]4C(=O)c5c(cc6cc(OC7CC(OC8CC(O)C(O)C(C)O8)C(O)C(C)O7)c(C)c(O)c6c5O)C[C@H]4[C@H](OC)C(=O)[C@@H](O)[C@@H](C)O)OC(C)C3O)OC(C)C2O)OC1C` (stereo not given in full), the EC50 is over 0.166 µM and the IC50 stood at 0.011 µM. As for `O=C1c2ccccc2-c2c1c1ccccc1c(=O)n2-c1ccccc1`, the EC50 was over 30.9 µM and the IC50 is over 30.9 µM. As to `O=C(OCc1ccccc1)c1ccccc1-c1c2ccc(=O)cc-2oc2cc(OCc3ccccc3)ccc12`, the EC50 is over 5.13 µM and the concentration for half-maximal inhibition (IC50) is over 5.13 µM. With `CN(C)C(=O)c1nnsc1NN=O`, the EC50 is over 200 µM and the half-inhibitory concentration (IC50) is over 200 µM. Regarding `Cn1c(=O)c2nc(N3CCOCC3)cnc2n(C)c1=O`, the EC50 was over 200 µM and the IC50 was over 200 µM. With `CC(C)(C)OC(=O)N1CCCC1C(=O)NCCNc1ccc(NCCNC(=O)C2CCCN2C(=O)OC(C)(C)C)c2c1C(=O)c1ccccc1C2=O` (stereo not given), the EC50 is over 151 µM and the IC50 is 6.61 µM. As for `COC(=O)C1=COC(C)C2CN3CCc4c([nH]c5cc(OC)ccc45)C3CC12` (stereo not given), the EC50 was over 46.8 µM and the concentration for half-maximal inhibition (IC50) is over 46.8 µM. As for `O=C1CC(=O)Nc2ccccc2N1`, the EC50 was over 200 µM and the half-maximal inhibitory concentration (IC50) was over 200 µM. On to `COc1ccc(-c2c(C3=NCCN3)nnn2-c2ccc(Cl)cc2)cc1`, for which the EC50 was over 126 µM and the 50% inhibitory concentration (IC50) came to 91.2 µM. Take `C#CC(O)/C=C/C(O)CCCC(O)CC#CC(O)C#CCCCCC(O)/C=C/CCCCCC(=O)CCCCCCCCCCCCCC(O)C(O)C#CC(=O)O` (stereo not given): the EC50 was over 50.1 µM and the IC50 was 28.8 µM. With `CC(C)(O)c1cc2c(cc1C(C)(C)O)-c1ccccc1-2`, the EC50 was over 200 µM and the half-maximal inhibitory concentration (IC50) was over 200 µM. As for `CCCc1noc(C(F)(F)Sc2ncccn2)n1`, the EC50 was over 200 µM and the half-maximal inhibitory concentration (IC50) is over 200 µM. For `COC(=O)C(=O)C(C(=O)C(=O)Nc1ccccc1OC)c1nc2ccc([N+](=O)[O-])cc2[nH]c1=O` (stereo not given), the EC50 is over 537 µM and the IC50 was 95.5 µM. Regarding `CN=C(NCCCOC)c1ccc(NC(=O)c2ccc(C(=O)Nc3ccc(C(=NC)NCCCOC)cc3)c([N+](=O)[O-])c2)cc1`, the EC50 is over 200 µM and the 50% inhibitory concentration (IC50) was found to be 19.1 µM. Take `C[C@@]1(O)CC[C@]2(C)C3CCCC3[C@H]12` (stereo not given in full): the outcome was inactive. Consider `CCOC(=O)C(C(=N)C(=N)C(C(=O)O)C(=O)OCC)C(=O)O` (stereo not given), for which the outcome was inactive.

As for `COC(=O)C1CC2CC1C1C2SC(F)(F)C1(F)F` (stereo not given), the EC50 is over 200 µM and the 50% inhibitory concentration (IC50) is over 200 µM.

As for `CC(C)N=C=NC(C)C`, the EC50 was over 380 µM and the half-maximal inhibitory concentration (IC50) was over 380 µM.

For the compound `C/C=C/CC1(CC)Oc2cccnc2-n2cccc2C1=O` (stereo not given), the EC50 was over 200 µM and the concentration for half-maximal inhibition (IC50) is over 100 µM. Turning to `CCC1=C(C)/C(=C/c2[nH]c(C(Br)Br)c(CC)c2C)N=C1C(Br)Br`, the result was inactive. As for `O=c1[nH]c(=O)c2ncn(-c3ccc([N+](=O)[O-])cn3)c2[nH]1`, the result was inactive. Regarding `CC1=C(C(=O)NCc2ccccc2)C(c2ccccc2C)C(C(=O)NCc2ccccc2)=C(C)N1`, the EC50 is over 21.4 µM and the concentration for half-maximal inhibition (IC50) is over 21.4 µM. As to `N#Cc1c[nH]n2ccnc12`, the EC50 was over 200 µM and the concentration for half-maximal inhibition (IC50) is over 200 µM.

As for `[O-][n+]1c2ccccc2[n+]([O-])c2c3ccccc3[nH]c21`, the EC50 is over 20.9 µM and the IC50 was over 20.9 µM. Consider `COC1OC(CO)C2OC12` (stereo not given), for which the EC50 is over 200 µM and the half-inhibitory concentration (IC50) was over 200 µM. As for `O=C(CSc1nc(-c2ccccc2)c(-c2ccccc2)[nH]1)N/N=C/c1ccc([N+](=O)[O-])cc1`, the EC50 was over 21.9 µM and the half-inhibitory concentration (IC50) came to 10 µM.
